From patent US5405598A, “Sensitizing agents for use in boron neutron capture therapy” (priority 1992, dated 1995)

Experiments:
hamster V-79 cells = settings: when irradiated with low energy neutrons; cited from earlier work
CEM = test: Cytotoxicity in CEM cells; type: cell-based; settings: On day 6; read-out: CEM IC50 (cytotoxicity)
Source text: (§1) Biological methods are described in Schinazi et al, Antimicrob. Agents Chemother., vol. 34, pp. 1061-1067, (1990).

Vero = test: Cytotoxicity in Vero cells; type: cell-based; settings: On day 3; read-out: Vero IC50 (cytotoxicity)
Source text: as §1

PBM = test: Cytotoxicity in PBM cells; type: cell-based, human; settings: On day 6; read-out: PBM IC50 (cytotoxicity)
Source text: as §1

HIV-1 (strain LAV) = test: Anti-HIV-1 activity in human PBM cells; type: cell-based; settings: On day 6, in human PBM cells, without neutrons
Source text: Thus, these compounds have antiviral activity in the absence of neutrons.
as §1

malignant cells = settings: under both euoxic and hypoxic conditions; cited from earlier work
[1] = mice, radiolabeled; cited from earlier work
[2] = mice; cited from earlier work
[3] = test system: human immunodeficiency viruses (HIV); settings: racemic BCH-189; FTC; cited from earlier work
Hepatitis B virus (HBV) = settings: racemic BCH-189; FTC; cited from earlier work

## O=c1[nH]c(=O)n([C@H]2C[C@H](O)[C@@H](CO)O2)cc1B(O)O [DBDU, 5-dihydroxyboryl-2'-deoxyuridine]
Hamster V-79 cells
  destruction of hamster V-79 cells: destroy hamster V-79 cells

## 5-Carboranyl-2',3'-dideoxy-3'-thiauridine
CEM
  CC50: 37.9 µM
Vero
  CC50: 34.2 µM
PBM
  CC50: > 100 µM
HIV-1 (strain LAV)
  EC50: 12.1 µM

## 5'-O-Butyryl-5-carboranyl-3'-thia-2',3'-dideoxyuridine
HIV-1 (strain LAV)
  EC50: 6.4 µM

## Cc1cc(OP(=O)(O)O)c2cc(I)ccc2c1OP(=O)(O)O [6-I-MNDP, 6-iodo-2-methyl-1,4-naphthoquinol bis(diammonium phosphate)]
Malignant cells
  uptake into malignant cells relative to normal cells: 15-20 fold
[1]
  uptake in tumor tissues: high uptake
  uptake into critical radiosensitive tissues, such as bone-marrow, colon, and lung: low uptake
[2]
  metabolic stability of the halogen-carbon bond: metabolically stable

## Nc1ccn([C@H]2CS[C@@H](CO)O2)c(=O)n1 (racemic) [BCH-189, 2', 3'-dideoxy-3'-thiacytidine]
[3]
  viability as anti-HIV agent: demonstrated
Hepatitis B virus (HBV)
  viability as anti-HBV agent: demonstrated

## Nc1nc(=O)n([C@H]2CS[C@@H](CO)O2)cc1F [FTC, 2', 3'-dideoxy-5-fluoro-3'-thiacytidine]
[3]
  viability as anti-HIV agent: demonstrated
Hepatitis B virus (HBV)
  viability as anti-HBV agent: demonstrated
